Like-named read-outs stand apart in the source and are kept apart here.
Experiments:
[1] = target: phospholipase A2 obtained from human leucocytes; assay: In vitro test for determining the inhibition of phospholipase A2 obtained from human leucocytes; assay type: biochemical; conditions: pH 7, 37°, one hour, 14C-oleic acid labelled E. coli phospholipids
Description: In vitro test for determining the inhibition of phospholipase A2 obtained from human leucocytes Human neutrophilic polymorphonuclear leucocytes are isolated from "buffy coats" by multistage fractional sedimentation and deep-frozen. Phospholipase A2 is extracted from the cell suspension by homogenisation with the addition of ice-cold 0.36N H2 SO4 in 2M NaCl and the supernatant obtained after centrifugation at 10,000 g is dialysed against sodium acetate buffer pH 4.5. […] The reaction is stopped by the addition of Dole reagent (isopropanol/heptane/1N H2 SO4 40:10:1, v/v) and the ^14 C-oleic acid released selectively by phospholipase A2 is extracted. […] The ^14 C-oleic acid in the eluate is determined radiometrically. In order to ascertain the inhibitory action of test substances on phospholipase A2, these substances are added to the incubation mixture in the form of solutions in water, dimethyl sulphoxide (final concentration in the mixture up to 5% by volume) or ethanol (final concentration in the mixture up to 2.5% by volume). The strength of action of the test substances is expressed by the IC50, that is to say the concentration that brings about a 50% inhibition of the control activity The IC50 is ascertained on a graph by entering the percentage inhibition on the ordinate against the logarithm of the concentration (μM) on the abscissa.

[2] = target: phospholipase C obtained from human thrombocytes; assay: In vitro test for determining the inhibition of phospholipase C obtained from human thrombocytes; assay type: biochemical
Method: In vitro test for determining the inhibition of phospholipase C obtained from human thrombocytes
Human thrombocytes are obtained from "buffy coats" by fractional centrifugation and then deep-frozen. Phospholipase C is released by ultrasound treatment of the cell suspension and, after ultracentrifugation (150,000 g, 1 hour) is in soluble form in the supernatant.
In order to determine the enzyme activity, enzyme (20-100 μg protein) is incubated for 5 minutes at 37° in 0.025M tris/malate buffer pH 6 with the addition of 0.2 mM CaCl2 and 0.02 mM radioactively labelled substrate, phosphatidyl- [^14 C]-inositol. The reaction is stopped by extraction by shaking with CHCl3 /CH3 OH 2:1 (v/v). Substrate that has not been consumed is extracted into the organic phase while the reaction product, ^14 C-inositol phosphate, remains in the aqueous phase and can be measured by radiometry of an aliquot.
In order to ascertain the inhibitory action of test substances on phospholipase C, these substances are added to the incubation mixture in the form of solutions in water or dimethyl sulphoxide (final concentration in the mixture up to 5% by volume). The strength of action of the test substances is expressed by the IC50, that is to say the concentration that brings about a 50% inhibition of the control activity. The IC50 is ascertained on a graph by entering the percentage inhibition on the ordinate against the logarithm of the concentration (μM) on the abscissa.

[3] = test system: LTD4-induced contractions of the isolated ileum; assay: Inhibitory action on LTD4-induced contractions of the guinea-pig ileum; assay type: cell-based, guinea-pigs; conditions: Cavia porcellus; synthetic LTD4, guinea-pig ileum segments in Tyrode's solution, 38° C.
Method: (§1) For example, they have an anti-allergic action which is based on a pronounced LTD4 (leucotriene-D4) and PAF (PAF-acetoether) antagonism.
Inhibitory action on LTD4 -induced contractions of the guinea-pig ileum
Contractions, the severity of which is recorded, are induced by synthetic LTD4 (leucotriene-D4, potassium salt) in ileum segments that have been taken from guinea-pigs having a body weight of from 300 to 400 g, fastened in an organ bath in Tyrode's solution (38° C., gassing with 95% O2 and 5% CO2) and charged with […]. The degree of inhibition of these contractions that is attributable to the LTD4 -antagonistic action of the test substance is measured. The concentration of test substance that reduces LTD4 -induced contractions to 50% of the starting value is ascertained, this concentration being termed IC50.

[4] = test system: LTD4-induced bronchospasms; assay: Bronchoconstriction test in guinea-pigs (in vivo, aerosol), LTD4-induced bronchospasm; conditions: aerosol treatment, compliance in third minute after LTD4 aerosol
Method: as §1
Bronchoconstriction test in guinea-pigs (in vivo, aerosol)
Male guinea-pigs weighing from 400 to 700 g are anaesthetised intraperitoneally with 1.4 g/kg of urethane, and a polyethylene tube is introduced into the jugular vein. A second polyethylene tube is introduced into the trachea. The pressure in the oesophagus is recorded by means of a tube which is introduced into the oesophagus and which is connected to a Statham pressure transducer. […] The flow is measured by means of this arrangement. […]
Aqueous solutions are each freshly prepared and introduced by means of an on-stream drug vial into the chamber of the spray device. […] The reduction in the compliance in the third minute after the administration of LTD4 is read by comparing the average value of three animals with the average value of three control animals and the percentage inhibition of the compliance is calculated in accordance with the following formula: [formula] If different concentrations of active ingredient are investigated, then the percentage inhibition for each concentration is recorded by entering the log concentration on the abscissa against the percentage inhibition on the ordinate. […]

Compound: CCCc1c(OCC(O)COc2cccc(NC(=O)C(=O)O)c2C#N)ccc(C(C)=O)c1O (stereo not drawn) [N-{3-[3-(4-acetyl-3-hydroxy-2-n-propyl-phenoxy)-2-hydroxypropoxy]-2-cyanophenyl}-oxamic acid, reference compound]
- IC50 [1]: inactive at 100
- IC50 ([2]; pH 6, 37°, 5 minutes, phosphatidyl-[14C]-inositol): inactive at 100

Compound: CCCc1c(OCC(O)COc2cccc(NC(=O)C(=O)O)c2)ccc(C(C)=O)c1O (stereo not drawn) [N-{3-[3-(4-acetyl-3-hydroxy-2-n-propyl-phenoxy)-2-hydroxypropoxy]-phenyl}-oxamic acid, reference compound]
- IC50 [1]: inactive at 100

Compound: CCCc1c(OCCCOc2cccc(NC(=O)c3nnn[nH]3)c2C#N)ccc(C(C)=O)c1O [N-{3-[3-(4-acetyl-3-hydroxy-2-n-propylphenoxy)-propoxy]-2-cyanophenyl}-1H-tetrazole-5-carboxamide]
- IC50 ([1]; read-out: IC50): 20 µM
- IC50 ([2]; pH 6, 37°, 5 minutes, phosphatidyl-[14C]-inositol, read-out: IC50): 14 µM

Compound: CCCc1c(OCCCOc2cccc(NC(=O)C(=O)O)c2C#N)ccc(C(C)=O)c1O [N-{3-[3-(4-acetyl-3-hydroxy-2-n-propylphenoxy)-propoxy]-2-cyanophenyl}-oxamic acid]
- IC50 ([1]; read-out: IC50): 30 µM

Compound: CCCc1c(OCCCOc2cc(NC(=O)c3nnn[nH]3)c(C)cc2Br)ccc(C(C)=O)c1O [N-{3-[3-(4-acetyl-3-hydroxy-2-n-propylphenoxy)-propoxy]-4-bromo-6-methylphenyl}-1H-tetrazole-5-carboxamide]
- IC50 ([1]; read-out: IC50): 10 µM
- IC50 [3]: 0.008 µM

Compound: CCCc1c(OCCCOc2cc(NC(=O)C(=O)O)c(C)cc2Br)ccc(C(C)=O)c1O [N-{3-[3-(4-acetyl-3-hydroxy-2-n-propylphenoxy)-propoxy]-4-bromo-6-methylphenyl}-oxamic acid]
- IC50 ([1]; read-out: IC50): 15 µM
- IC50 [4]: 0.033 % of the aerosol solution

Compound: CCCc1c(OCCCOc2ccc(C)c(NC(=O)C(=O)O)c2)ccc(C(C)=O)c1O [N-{3-[3-(4-acetyl-3-hydroxy-2-n-propylphenoxy)-propoxy]-6-methylphenyl}-oxamic acid]
- IC50 [4]: 0.024 % of the aerosol solution
- IC50 [3]: 0.015 µM

Compound: CCCc1c(OCCCOc2cccc(NC(=O)C(=O)O)c2)ccc(C(C)=O)c1O [N-{3-[3-(4-acetyl-3-hydroxy-2-n-propylphenoxy)-propoxy]-phenyl}-oxamic acid]
- IC50 ([1]; read-out: IC50): 23 µM

Compound: CCN(CC)CCCC(C)Nc1c2ccc(Cl)cc2nc2ccc(OC)cc12 (stereo not drawn) [mepacrine, reference compound]
- IC50 ([1]; read-out: IC50): 1600 µM
- IC50 ([2]; mepacrine under the test conditions described, read-out: IC50): 20 µM

Source: patent US4863942A, “Novel resorcinol ethers and anti-inflammatory and anti-allergic use thereof” (Ciba-Geigy Corporation, priority 1984, dated 1989)
